Results: patent US20240300980A1, “HETEROCYCLIC COMPOUNDS AS KRAS INHIBITOR, AND PREPARATION THEREFOR AND USE THEREOF IN TREATMENT” (SHANGHAI KECHOW PHARMA, INC., priority 2021, published 2024)

System: AGS cells (KRAS^G12D)
Experiment: Detection of cell proliferation in vitro by MTT/MTS method (cell activity experiment)
Assay type: cell-based
Settings: Homo sapiens, AGS, 72 h, AGS cells; MTT/MTS; 3 days of drug treatment; read-out: AGS IC50
Procedure, shortened: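 After 3-day compound exposure (final DMSO 0.5%), viability of AGS (KRAS G12D) cells, plated 1000/well one day before dosing, was measured at 490 nm following 4 h MTT or MTS incubation. IC50 was fitted from dose–effect curves relative to DMSO-treated wells.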

SMILES	IC50
C#Cc1cccc2cc(O)cc(-c3ncc4c(N5CC6CCC(C5)C6O)nc(OC[C@@]56CCCN5C[C@H](F)C6)nc4c3F)c12 (stereo partly drawn) [Example 61, (1R,5S,8R)-3-(7-(8-ethynyl-3-hydroxynaphthalen-1-yl)-8-fluoro-2-(((2R, 7aS)-2-fluorotetrahydro-1H-pyrrolizin-7a(5H)-yl)methoxy)pyrido[4,3-d]pyrimidin-4-yl)-3-azabicyclo[3.2.1] octan-8-ol]	> 2500 nM
C#Cc1c(F)ccc2cc(O)cc(-c3ncc4c(N5CC6CCC(C5)C6[S+](C)[O-])nc(OC[C@@]56CCCN5C[C@H](F)C6)nc4c3F)c12 (stereo partly drawn) [Example 65, 5-ethynyl-6-fluoro-4-(8-fluoro-2-(((2R,7aS)-2-fluorotetrahydro-1H-pyrrolizin-7a(5H)-yl)methoxy)-4-((1R,5S, 8R)-8-(methylsulfinyl)-3-azabicyclo[3.2.1]octan-3-yl)pyrido[4,3-d]pyrimidin-7-yl) naphthalen-2-ol]	> 10000 nM
CC[C@H]1CCc2cc(O)cc(-c3ncc4c(N5CC6CCC(C5)N6)nc(OC[C@@]56CCCN5C[C@H](F)C6)nc4c3F)c21 (single isomer, unassigned) [Example 222, (S)-7-(4-((1R,5S)-3,8-diazabicyclo[3.2.1]octan-3-yl)-8-fluoro-2-(((2R,7aS)-2-fluorotetrahydro-1H-pyrrolizin-7a(5H)-yl)methoxy)pyrido[4,3-d]pyrimidin-7-yl)-1-ethyl-2,3-dihydro-1H-inden-5-ol or (R)-7-(4-((1R,5S)-3,8-diazabicyclo[3.2.1]octan-3-yl)-8-fluoro-2-(((2R,7aS)-2-fluorotetrahydro-1H-pyrrolizin-7a(5H)-yl)methoxy)pyrido[4,3-d]pyrimidin-7-yl)-1-ethyl-2,3-dihydro-1H-inden-5-ol]	2.5 nM
CCc1cccc2cc(O)cc(N3CCc4c(nc(OC[C@@]56CCCN5C[C@H](F)C6)nc4N4C[C@H]5CC[C@@H](C4)N5)C3)c12 [Example 207, 4-(4-((1R,5S)-3,8-diazabicyclo[3.2.1]octan-3-yl)-2-(((2R,7aS)-2-fluorotetrahydro-1H-pyrrolizin-7a(5H)-yl)methoxy)-5,8-dihydropyrido[3,4-d]pyrimidin-7(6H)-yl)-5-ethylnaphthalen-2-ol]	25 nM
C#Cc1c(F)ccc2cc(O)cc(-c3ccc4c(N5CC6CCCC(C5)N6)nc(OC[C@@]56CCCN5C[C@H](F)C6)nc4c3F)c12 [Example 105, 4-(4-(3,9-diazabicyclo [3.3.1]nonan-3-yl)-8-fluoro-2-(((2R,7aS)-2-fluorotetrahydro-1H-pyrrolizin-7a(5H)-yl)methoxy)quinazolin-7-yl)-5-ethynyl-6-fluoronaphthalen-2-ol]	80 nM
CCc1coc2cc(O)cc(-c3ncc4c(N5C[C@H]6CC[C@@H](C5)N6)nc(OC[C@@]56CCCN5C[C@H](F)C6)nc4c3F)c12 [Example 244, 4-(4-((1R,5S)-3,8-diazabicyclo[3.2.1]octan-3-yl)-8-fluoro-2-(((2R,7aS)-2-fluorotetrahydro-1H-pyrrolizin-7a(5H)-yl)methoxy)pyrido[4,3-d]pyrimidin-7-yl)-3-ethylbenzofuran-6-ol]	59 nM
C#Cc1cccc2cc(O)cc(-c3ncc4c(N5C[C@H]6CC[C@@H](C5)N6)c(C#N)c(OC[C@@]56CCCN5C[C@H](F)C6)nc4c3F)c12 [Example 189, 4-((1R,5S)-3,8-diazabicyclo[3.2.1]octan-3-yl)-7-(8-ethynyl-3-hydroxynaphthalen-1-yl)-8-fluoro-2-(((2R,7aS)-2-fluorotetrahydro-1H-pyrrolizin-7a(5H)-yl)methoxy)-1,6-naphthyridine-3-carbonitrile]	152 nM
C#Cc1c(F)ccc2cc(O)cc(-c3ncc4c(N5CCC6(CC5)CO[C@@H](C)[C@H]6N)nc(OC[C@@]56CCCN5C[C@H](F)C6)nc4c3F)c12 [Example 55, 4-(4-((3S,4S)-4-amino-3-methyl-2-oxa-8-azaspiro[4.5]decan-8-yl)-8-fluoro-2-(((2R, 7aS)-2-fluorotetrahydro-1H-pyrrolizin-7a(5H)-yl)methoxy)pyrido[4,3-d]pyrimidin-7-yl)-5-ethynyl-6-fluoronaphthalen-2-ol]	> 2500 nM
CCc1c(F)ccc2cc(O)cc(-c3c(F)c4nc(OC[C@@]56CCCN5C[C@H](F)C6)nc(N5C[C@H]6CC[C@@H](C5)N6)c4c4cncn34)c12 [Example 416, 4-(1-((1R,5S)-3,8-diazabicyclo[3.2.1]octan-3-yl)-5-fluoro-3-(((2R,7aS)-2-fluorotetrahydro-1H-pyrrolizin-7a(5H)-yl)methoxy)imidazo[1′,5′:1,2]pyrido[4,3-d]pyrimidin-6-yl)-5-ethyl-6-fluoronaphthalen-2-ol]	28 nM
C#Cc1c(F)ccc2cc(O)cc(-c3ccc4c(N5CC6CCC(C5)[S+]6[O-])nc(OC[C@@]56CCCN5C[C@H](F)C6)nc4c3F)c12 (stereo partly drawn) [Example 159, (1R,5S,8R)-3-(7-(8-ethynyl-7-fluoro-3-hydroxynaphthalen-1-yl)-8-fluoro-2-(((2R,7aS)-2-fluorotetrahydro-1H-pyrrolizin-7a(5H)-yl)methoxy)quinazolin-4-yl)-8-thia-3-azabicyclo[3.2.1]octane 8-oxide]	> 2500 nM
C#Cc1cccc2cc(O)cc(-c3ncc4c(N5C[C@H]6CC[C@@H](C5)C6(F)F)nc(OC[C@@]56CCCN5C[C@H](F)C6)nc4c3F)c12 [Example 32, 4-(4-((1R,5S)-8,8-difluoro-3-azabicyclo [3.2.1]octan-3-yl)-8-fluoro-2-(((2R,7aS)-2-fluorotetrahydro-1H-pyrrolizin-7a(5H)-yl)methoxy)pyrido[4,3-d]pyrimidin-7-yl)-5-ethynylnaphthalen-2-ol]	> 2500 nM
C#Cc1c(F)ccc2cc(O)cc(-c3ncc4c(N5C[C@H]6CC[C@@H](C5)N6)nc(OCC56CC5CCN6C)nc4c3F)c12 (stereo partly drawn) [Example 77, 4-(4-((1R,5S)-3,8-diazabicyclo[3.2.1]octan-3-yl)-8-fluoro-2-((2-methyl-2-azabicyclo[3.1.0]hexan-1-yl)methoxy)pyrido [4,3-d]pyrimidin-7-yl)-5-ethynyl-6-fluoronaphthalen-2-ol]	> 2500 nM
Oc1cc2c(c(-c3ncc4c(N5C[C@H]6CC[C@@H](C5)N6)nc(OC[C@@]56CCCN5C[C@H](F)C6)nc4c3F)c1)C(C(F)F)CCC2 (stereo partly drawn) [Example 261, 4-(4-((1R,5S)-3,8-diazabicyclo[3.2.1]octan-3-yl)-8-fluoro-2-(((2R,7aS)-2-fluorotetrahydro-1H-pyrrolizin-7a(5H)-yl)methoxy)pyrido[4,3-d]pyrimidin-7-yl)-5-(difluoromethyl)-5,6,7,8-tetrahydronaphthalen-2-ol]	1930 nM
C#Cc1c(F)ccc2cc(O)cc(-c3c(F)c4nc(OC[C@@]56CCCN5C[C@H](F)C6)nc(N5C[C@H]6CC[C@@H](C5)N6)c4c4nccn34)c12 [Example 399, 4-(10-((1R,5S)-3,8-diazabicyclo[3.2.1]octan-3-yl)-6-fluoro-8-(((2R,7aS)-2-fluorotetrahydro-1H-pyrrolizin-7a(5H)-yl)methoxy)imidazo[1′,2′:1,2]pyrido[4,3-d]pyrimidin-5-yl)-5-ethynyl-6-fluoronaphthalen-2-ol]	65 nM
C#Cc1c(F)ccc2cc(O)cc(N3CCc4c(nc(OC[C@@]56CCCN5C[C@H](F)C6)nc4N4C[C@H]5CC[C@@H](C4)N5)C3)c12 [Example 202, 4-(4-((1R,5S)-3,8-diazabicyclo[3.2.1]octan-3-yl)-2-(((2R,7aS)-2-fluorotetrahydro-1H-pyrrolizin-7a(5H)-yl)methoxy)-5,8-dihydropyrido[3,4-d]pyrimidin-7(6H)-yl)-5-ethynyl-6-fluoronaphthalen-2-ol]	7.5 nM
C#Cc1cccc2cc(O)cc(-c3ccc4c(N5CCC6(CC5)CO[C@@H](C)[C@H]6N)nc(OC[C@@]56CCCN5C[C@H](F)C6)nc4c3F)c12 [Example 115, 4-(4-((3S,4S)-4-amino-3-methyl-2-oxa-8-azaspiro[4.5]decan-8-yl)-8-fluoro-2-(((2R, 7aS)-2-fluorotetrahydro-1H-pyrrolizin-7a(5H)-yl)methoxy)quinazolin-7-yl)-5-ethynylnaphthalen-2-ol]	> 2500 nM
Cc1cc(N)nc(-c2ncc3c(N4C[C@H]5CC[C@@H](C4)N5)nc(OC[C@@]45CCCN4C[C@H](F)C5)nc3c2F)c1C1CC1 [Example 72, 6-(4-((1R,5S)-3,8-diazabicyclo[3.2.1]octan-3-yl)-8-fluoro-2-(((2R,7aS)-2-fluorotetrahydro-1H-pyrrolizin-7a(5H)-yl)methoxy)pyrido[4,3-d]pyrimidin-7-yl)-5-cyclopropyl-4-methylpyridin-2-amine]	> 2500 nM
C#Cc1c(F)ccc2cc(O)cc(-c3ncc4c(N5CC6CCC(C5)C6O)nc(OC[C@@]56CCCN5C[C@H](F)C6)nc4c3F)c12 (stereo partly drawn) [Example 60, (1R,5S,8R)-3-(7-(8-ethynyl-7-fluoro-3-hydroxynaphthalen-1-yl)-8-fluoro-2-(((2R,7aS)-2-fluorotetrahydro-1H-pyrrolizin-7a(5H)-yl)methoxy)pyrido[4,3-d]pyrimidin-4-yl)-3-azabicyclo[3.2.1]octan-8-ol]	> 2500 nM
C#Cc1cc2c(N3C[C@H]4CC[C@@H](C3)N4)nc(OC[C@@]34CCCN3C[C@H](F)C4)nc2c(F)c1-c1cc(O)cc2c1C(CC)CC2 (stereo partly drawn) [Example 371, 7-(4-((1R,5S)-3,8-diazabicyclo[3.2.1]octan-3-yl)-6-ethynyl-8-fluoro-2-(((2R,7aS)-2-fluorotetrahydro-1H-pyrrolizin-7a(5H)-yl)methoxy)quinazolin-7-yl)-1-ethyl-2,3-dihydro-1H-inden-5-ol]	85 nM
CCC1CCc2cc(O)cc(-c3c(F)c4nc(OC[C@@]56CCCN5C[C@H](F)C6)nc(N5C[C@H]6CC[C@@H](C5)N6)c4c4cncn34)c21 (stereo partly drawn) [Example 418, 7-(1-((1R,5S)-3,8-diazabicyclo[3.2.1]octan-3-yl)-5-fluoro-3-(((2R,7aS)-2-fluorotetrahydro-1H-pyrrolizin-7a(5H)-yl)methoxy)imidazo[1′,5′:1,2]pyrido[4,3-d]pyrimidin-6-yl)-1-ethyl-2,3-dihydro-1H-inden-5-ol]	75 nM
